Laboratory results published in US11447486B2, “2-amino-benzimidazole derivatives and their use as 5-lipoxygenase and/or prostaglandin E synthase inhibitors” (INSTITUT PASTEUR KOREA, priority 2014, dated 2022).

Columns and labels:
[1] = target: T1, human 5-LOX (Homo sapiens, UniProt P09917); assay: 5-LOX enzyme activity, fluorescence method (5-HPETE, H2DCFDA); format: biochemical; conditions: read-out: 5-LO (IC50)
T1 construct: purchased Cayman 60402; host or cells: insect cells (lysate)
T1 sequence (P09917 1-674): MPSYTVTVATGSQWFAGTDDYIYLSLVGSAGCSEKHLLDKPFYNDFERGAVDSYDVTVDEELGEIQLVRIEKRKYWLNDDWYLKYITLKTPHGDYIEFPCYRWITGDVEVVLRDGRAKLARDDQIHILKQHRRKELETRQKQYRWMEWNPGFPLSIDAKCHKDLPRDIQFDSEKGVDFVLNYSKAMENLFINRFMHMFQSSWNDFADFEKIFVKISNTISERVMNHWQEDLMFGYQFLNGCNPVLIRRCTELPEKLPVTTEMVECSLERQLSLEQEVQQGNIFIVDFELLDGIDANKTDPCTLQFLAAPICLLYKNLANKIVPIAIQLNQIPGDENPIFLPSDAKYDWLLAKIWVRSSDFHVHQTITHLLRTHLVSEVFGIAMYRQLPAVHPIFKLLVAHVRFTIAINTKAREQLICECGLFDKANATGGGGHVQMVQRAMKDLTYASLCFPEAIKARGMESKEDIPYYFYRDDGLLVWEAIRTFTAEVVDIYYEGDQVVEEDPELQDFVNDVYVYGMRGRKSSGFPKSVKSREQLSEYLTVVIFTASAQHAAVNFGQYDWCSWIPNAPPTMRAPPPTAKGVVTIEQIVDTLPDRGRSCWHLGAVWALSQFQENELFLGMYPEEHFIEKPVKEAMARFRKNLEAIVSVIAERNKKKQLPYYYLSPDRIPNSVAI
Procedure, shortened: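 Fluorescence-based read-out, run entirely at room temperature. Enzyme mixture was exposed to a dose range of compound from 0.5 nM to 10 uM for 5 min before ATP and arachidonic acid were added to final levels of 100 uM and 3 uM.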

[2] = system: Rat basophilic leukemia (RBL) cells; assay: LTB4 secretion assay in RBL (rat basophilic leukemia cells); format: cell-based; conditions: Rattus norvegicus, RBL
Procedure, shortened: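 LTB4 released into supernatant was measured by EIA after 10 min at 37 °C with arachidonic acid (2.5 uM final) and calcium ionophore A23187 (5 uM final). Before stimulation, cells plated 2×10^4/well overnight received compound doses (5 nM to 100 uM) for 15 min in 0.5% FBS medium.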

[3] = system: Rat whole blood (RWB); assay: LTB4 secretion assay in RWB (rat whole blood); format: cell-based; conditions: Rattus norvegicus
Procedure, shortened: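 LTB4 release was measured by EIA in supernatants of pooled, sodium heparin rat blood (male Sprague Dawley, 6-9 weeks) diluted 1:1 with RPMI. Compounds (2.5 nM to 50 uM) were added 15 min before A23187 (10 uM final), with 10 min stimulation at 37 °C before ice-cold PBS quench.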

Row | IC50 [1] [µM] | EC50 [2] [µM] | EC50 [3] [µM] | Structure (SMILES)
1 | < 1 | < 10 | < 10 | Cn1c(NCc2ccc(Oc3ccc(Cl)nc3)cc2)nc2ccc(NC3COC3)cc21 [Compound 281]
2 | < 1 | < 10 | 10 to 20 | Cc1cc(Oc2ccc(Cl)cn2)ccc1CNc1nc2ccc(NC3COC3)cc2n1C [Compound 291]
3 | < 1 | < 10 | > 20 | Cn1c(NCc2ccc(Oc3ccc(Cl)cn3)cc2Cl)nc2ccc(NC3COC3)cc21 [Compound 294]
4 | < 1 | > 20 | > 20 | Cn1c(NCc2ccc(C(=O)Nc3ccc(Cl)cn3)cc2)nc2ccc(NC3COC3)cc21 [Compound 303]
5 | < 1 | 10 to 20 | > 20 | Cn1c(NCc2ccc(Oc3ccc(Cl)cc3)nc2)nc2ccc(NC3COC3)cc21 [Compound 307]
6 | < 1 | > 20 | > 20 | Cn1c(NCc2ccc(Oc3ccc(Cl)cn3)nc2)nc2ccc(NC3COC3)cc21 [Compound 309]
7 | < 1 | 10 to 20 | > 20 | Cn1c(NCc2ccc(OCc3ccc(Cl)cn3)cc2)nc2ccc(NC3COC3)cc21 [Compound 315]
8 | < 1 | < 10 | < 10 | Cn1c(NCc2ccc(Oc3ncc(Cl)cc3F)cc2)nc2ccc(NC3COC3)cc21 [Compound 324]
9 | < 1 | < 10 | < 10 | COc1cc(Oc2ccc(Cl)cn2)ccc1CNc1nc2ccc(NC3COC3)cc2n1C [Compound 328]
10 | < 1 | 10 to 20 | < 10 | Cn1c(NCc2ccc(Oc3ncc(F)cn3)cc2)nc2ccc(N)cc21 [Compound 336]
11 | < 1 | 10 to 20 | 10 to 20 | Cn1c(NCc2ccc(Oc3ncc(F)cn3)cc2)nc2ccc(NC3COC3)cc21 [Compound 337]
12 | < 1 | 10 to 20 | < 10 | Cn1c(NCc2ccc(Oc3cnc(Cl)nc3)cc2)nc2ccc(NC3COC3)cc21 [Compound 341]
13 | < 1 | > 20 | 10 to 20 | Cn1c(NCc2ccc(OCc3ncco3)cc2)nc2ccc(NC3COC3)cc21 [Compound 343]
14 | < 1 | > 20 | 10 to 20 | Cn1c(NCc2ccc(Oc3ncccn3)cc2)nc2ccc(N)cc21 [Compound 344]
15 | < 1 | > 20 | < 10 | Cn1c(NCc2ccc(Oc3ncccn3)cc2)nc2ccc(NC3COC3)cc21 [Compound 345]
16 | < 1 | 10 to 20 | < 10 | Cn1c(NCc2ccc(Oc3ccc(C#N)cn3)cc2)nc2ccc(NC3COC3)cc21 [Compound 351]
17 | < 1 | < 10 | < 10 | Cn1c(NCc2ccc(Oc3ncc(Cl)cn3)cc2)nc2ccc(NC(C)(C)C(N)=O)cc21 [Compound 358]
18 | < 1 | > 20 | > 20 | Cn1c(NCc2ccc(Oc3nccc(C(F)(F)F)n3)cc2)nc2ccc(NC3COC3)cc21 [Compound 364]
19 | < 1 | < 10 | < 10 | Cn1c(NCc2ccc(Oc3ncc(C#N)cn3)cc2)nc2ccc(N)cc21 [Compound 367]
20 | < 1 | < 10 | < 10 | Cn1c(NCc2ccc(Oc3ncc(C#N)cn3)cc2)nc2ccc(NC3COC3)cc21 [Compound 368]
21 | < 1 | 10 to 20 | 10 to 20 | Cn1c(NCc2ccc(Oc3ccncn3)cc2)nc2ccc(NC3COC3)cc21 [Compound 371]
22 | < 1 | < 10 | < 10 | Cn1c(NCc2ccc(Oc3ncc(C(F)(F)F)cn3)cc2)nc2ccc(N)cc21 [Compound 373]
23 | < 1 | < 10 | > 20 | Cn1c(NCc2ccc(Oc3ccc4cc(F)ccc4n3)cc2)nc2ccc(NC3COC3)cc21 [Compound 383]
24 | < 1 | < 10 | < 10 | Cn1c(NCc2ccc(Oc3ncc(Cl)cn3)c(Cl)c2)nc2ccc(NC3COC3)cc21 [Compound 392]
25 | < 1 | < 10 | < 10 | Cn1c(NCc2ccc(Oc3ncc(OC(F)(F)F)cn3)cc2)nc2ccc(NC3COC3)cc21 [Compound 412]
26 | < 1 | < 10 | < 10 | Cn1ccc(Nc2ccc3nc(NCc4ccc(Oc5ncc(Cl)cn5)cc4)n(C)c3c2)n1 [Compound 414]
27 | < 1 | < 10 | < 10 | Cc1cc(Nc2ccc3nc(NCc4ccc(Oc5ncc(Cl)cn5)cc4)n(C)c3c2)n[nH]1 [Compound 415]

Second part, the compound before the results:

Row | Structure (SMILES) | IC50 [1] [µM] | EC50 [2] [µM] | EC50 [3] [µM]
28 | Cn1c(NCc2ccc(Oc3ccc(C(F)(F)F)cn3)cc2)nc2ccc(NC3COC3)cc21 [Compound 284] | < 1 | < 10 | < 10
29 | Cn1c(NCc2ccc(Oc3ncc(Cl)cn3)cc2)nc2ccc(N)cc21 [Compound 288] | < 1 | < 10 | < 10
30 | Cn1c(NCc2ccc(Oc3ncc(Cl)cn3)cc2)nc2ccc(NC3COC3)cc21 [Compound 289] | < 1 | < 10 | < 10
31 | Cn1c(NCc2ccc(Oc3cnc(Cl)cn3)cc2)nc2ccc(NC3COC3)cc21 [Compound 296] | < 1 | < 10 | < 10
32 | Cn1c(NCc2ccc(Oc3ccc(Cl)cc3)cn2)nc2ccc(NC3COC3)cc21 [Compound 298] | < 1 | < 10 | > 20
33 | Cn1c(NCc2ccc(Oc3ccc(Cl)cn3)cn2)nc2ccc(NC3COC3)cc21 [Compound 300] | < 1 | < 10 | 10 to 20
34 | Cn1c(NCc2ccc(Oc3ccc(F)cn3)cc2)nc2ccc(NC3COC3)cc21 [Compound 302] | < 1 | < 10 | 10 to 20
35 | Cn1c(NCc2ccc(COc3ccc(Cl)cn3)cc2)nc2ccc(NC3COC3)cc21 [Compound 305] | < 1 | < 10 | > 20
36 | Cn1c(NCc2ccc(Oc3ccc(Cl)cn3)cc2)nc2ccc(NC(C)(C)C(N)=O)cc21 [Compound 306] | < 1 | < 10 | < 10
37 | Cc1ccc(Oc2ccc(CNc3nc4ccc(N)cc4n3C)cc2)nn1 [Compound 311] | < 1 | > 20 | < 10
38 | Cn1c(NCc2ccc(Oc3ccc(C#N)cn3)cc2)nc2ccc(N)cc21 [Compound 350] | < 1 | < 10 | < 10
39 | Cn1c(NCc2ccc(Oc3nc4ccccc4n3C)cc2)nc2ccc(NC3COC3)cc21 [Compound 357] | < 1 | < 10 | 10 to 20
40 | Cn1c(NCc2ccc(Oc3cnc(N)nc3)cc2)nc2ccc(N)cc21 [Compound 360] | < 1 | 10 to 20 | < 10
41 | Cn1c(NCc2ccc(Oc3ncc(Br)cn3)cc2)nc2ccc(NC3COC3)cc21 [Compound 362] | < 1 | 10 to 20 | < 10
42 | Cn1c(NCc2ccc(Oc3cnc(N)nc3)cc2)nc2ccc(NC3COC3)cc21 [Compound 369] | < 1 | < 10 | < 10
43 | Cn1c(NCc2ccc(Oc3ncc(C(F)(F)F)cn3)cc2)nc2ccc(NC3COC3)cc21 [Compound 374] | < 1 | < 10 | < 10
44 | Cn1c(NCc2ccc(Oc3ccc(OC(F)(F)F)cn3)cc2)nc2ccc(NC3COC3)cc21 [Compound 378] | < 1 | < 10 | < 10
45 | Cn1c(NCc2ccc(Oc3ncc(Cl)cn3)cc2F)nc2ccc(NC3COC3)cc21 [Compound 381] | < 1 | > 20 | < 10
46 | Cn1c(NCc2ccc(Oc3cc(Cl)ncn3)cc2)nc2ccc(NC3COC3)cc21 [Compound 394] | < 1 | 10 to 20 | > 20
47 | Cn1c(NCc2ccc(Oc3nc4ccc(N)cc4n3C)cc2)nc2ccc(NC3COC3)cc21 [Compound 409] | < 1 | > 20 | > 20
48 | Cn1ccc(Nc2ccc3nc(NCc4ccc(Oc5ccc(Cl)cn5)cc4)n(C)c3c2)n1 [Compound 413] | < 1 | < 10 | < 10
49 | Cc1cc(Oc2ncc(Cl)cn2)cc(C)c1CNc1nc2ccc(NC3COC3)cc2n1C [Compound 417] | < 1 | > 20 | > 20
